In patent US20260198495A1, “BINARY INSECTICIDE COMPOSITION AND USE THEREOF” (SHENYANG SINOCHEM AGROCHEMICALS R & D CO., LTD., priority 2022, published 2026):
In brackets after ≈: the same amount, converted by molar mass.

How the values were obtained:
Type in all cases: in vivo
[1] = system: adult Phyllotreta vittuta Fabr.; assay: Joint toxicity of I-72 + acetamiprid, Example 65, Table 65; conditions: 72 h
Protocol: (§1) Test target: adult Phyllotreta vittuta Fabr.
(§2) Preparation of the pesticide solution: according to different test requirements, the test samples were accurately weighed respectively with an electronic analytical balance. The technical pesticides were dissolved in acetone, and then diluted with 0.1% Tween 80 water into a series of pesticide solutions with a certain concentration gradient according to the experimental design dosage.
(§3) Experimental method: first, uniform and consistent potted cabbage seedlings were selected. Then, uniform spraying was performed with the pesticide solution in the order from low dosage to high dosage according to the experimental design. After air-drying in the shade, adult flea beetles were transferred onto the treated cabbage seedlings, and then glass covers were put on them, with about 30-40 adult flea beetles on each seedling and 3 replicates for each treatment. In addition, a blank control was set up.
(§4) The treated test materials were placed in an observation room, and the temperature, humidity and illumination of the observation room could be adjusted as needed. The number of dead and live insects was investigated 72 hours later.

[2] = system: 3rd-instar larvae of Chilo suppressalis (Walker); assay: Joint toxicity of I-72 + chlorantraniliprole, Example 57, Table 57; conditions: in Oryza sativa, 72 h
Protocol: Test target: 3rd-instar larvae of Chilo suppressalis (Walker).
as §2
Experimental method: first, tender rice stems were selected and dipped in the prepared pesticide solution for 10 s in the order from low dosage to high dosage according to the experimental design. After natural air-drying in the shade, they were placed in a 9-cm-diameter Petri dish with filter paper, and uniform and healthy test insects were introduced, with 10 insects for each treatment and 3 replicates for each treatment. In addition, a blank control (CK) was set up.
The treated test materials were placed in an observation room, and the temperature, humidity and illumination of the observation room could be adjusted as needed. The number of dead and live insects was investigated 72 hours later. […] Then, the co-toxicity coefficient of each ratio was calculated using the Sun Y-P method to evaluate the mixing effect, as in Example 1.

[3] = system: Myzus persicae (Sulzer) nymphs; assay: whole plant or invertebrate; conditions: in Brassica oleracea, 48 h
Protocol: (§5) Test target: Myzus persicae (Sulzer) nymphs, a sensitive strain reared indoors.
as §2
(§6) Experimental method: first, cabbage leaves with uniform and consistent Myzus persicae (Sulzer) were selected, with about 30-40 insects on each leaf. Then, they were evenly sprayed with the pesticide solution in the order from low dosage to high dosage according to the experimental design, with 1.5 mL of the solution for each leaf and 3 replicates for each treatment. In addition, a blank control was set up.
(§7) The treated test materials were placed in an observation room, and the temperature, humidity and illumination of the observation room could be adjusted as needed. The number of dead and live insects was investigated 48 hours later.

[4] = system: Myzus persicae (Sulzer) nymphs; assay: Joint toxicity of I-72 + cyantraniliprole, Example 59, Table 59; conditions: in Brassica oleracea, 48 h
Protocol: as §5, §2, §6
(§8) The treated test materials were placed in an observation room, and the temperature, humidity and illumination of the observation room could be adjusted as needed. The number of dead and live insects was investigated 48 hours later. […] Then, the co-toxicity coefficient of each ratio was calculated using the Sun Y-P method to evaluate the mixing effect (the same as in Example 1).

[5] = system: adult Phyllotreta vittuta Fabr.; assay: Joint toxicity of I-72 + cyantraniliprole, Example 63, Table 63; conditions: 72 h
Protocol: as §1, §2, §3
(§9) The treated test materials were placed in an observation room, and the temperature, humidity and illumination of the observation room could be adjusted as needed. The number of dead and live insects was investigated 72 hours later. […] Then, the co-toxicity coefficient of each ratio was calculated using the Sun Y-P method to evaluate the mixing effect (the same as in Example 1).

[6] = system: Liriomyza sativae Blanchard larvae; assay: Joint toxicity of I-72 + cyromazine, Example 55, Table 55; conditions: in Phaseolus vulgaris
Protocol: Test target: Liriomyza sativae Blanchard larvae.
as §2
Experimental method: first, kidney bean seedlings with the Liriomyza sativae Blanchard larvae (the larvae had just invaded and formed mines) were selected. Spraying treatments were performed in the order from low dosage to high dosage according to the experimental design, with 3 replicates for each treatment. In addition, a blank control was set up.
The treated test materials were placed in an observation room, and the temperature, humidity and illumination of the observation room could be adjusted as needed. After the larvae in the blank control group pupated, the numbers of dead and live insects were then counted. […] Then, the co-toxicity coefficient of each ratio was calculated using the Sun Y-P method to evaluate the mixing effect (the same as in Example 1).

[7] = system: Frankliniella occidentalis nymphs; assay: whole plant or invertebrate; conditions: in Phaseolus vulgaris, foliar, 48 h
Protocol: Test target: Frankliniella occidentalis nymphs.
as §2
Experimental method: first, kidney bean leaves were selected and dipped in the prepared pesticide solution for 10 s in the order from low dosage to high dosage according to the experimental design. After natural air-drying in the shade, they were placed in a 9-cm-diameter Petri dish with filter paper, and uniform and healthy test insects were introduced, with 20-30 insects for each treatment and 3 replicates for each treatment. In addition, a blank control was set up.
as §8

[8] = system: 3-instar larvae of Ostrinia furnacnlis Guenee; assay: Joint toxicity of I-72 + flubendiamide, Example 61, Table 61; conditions: in Zea mays, 72 h
Protocol: Test target: 3-instar larvae of Ostrinia furnacnlis Guenee.
as §2
Experimental method: first, tender corn stems were selected and dipped in the prepared pesticide solution for 10 s in the order from low dosage to high dosage according to the experimental design. After natural air-drying in the shade, they were placed in a 9-cm-diameter Petri dish with filter paper, and uniform and healthy test insects were introduced, with 10 insects for each treatment and 3 replicates for each treatment. In addition, a blank control was set up.
as §9

[9] = system: 2nd-instar larvae of Mythimna separata; assay: Joint toxicity of I-72 + hexaflumuron, Example 56, Table 56; conditions: in Zea mays, foliar, 72 h
Protocol: Test target: 2nd-instar larvae of Mythimna separata.
as §2
Experimental method: first, corn leaves were selected and dipped in the prepared pesticide solution for 10 s in the order from low dosage to high dosage according to the experimental design. After natural air-drying in the shade, they were placed in a 9-cm-diameter Petri dish with filter paper, and uniform and healthy test insects were introduced, with 10 insects for each treatment and 3 replicates for each treatment. In addition, a blank control was set up.
as §9

[10] = system: Nilaparvata lugens (Stal) nymphs; assay: Joint toxicity of I-72 + imidacloprid, Example 70, Table 70; conditions: 72 h
Protocol: Test target: Nilaparvata lugens (Stal) nymphs, a sensitive strain reared indoors.
as §2
Experimental method: the activity of the mixture against the Nilaparvata lugens (Stal) nymphs was determined by adopting the potted-seedling spraying method. First, rice seedlings were planted in culture pots. Uniform spraying was performed with the pesticide solution in the order from low dosage to high dosage according to the experimental design, with 2 mL for each seedling. Then, Nilaparvata lugens nymphs of uniform size were transferred onto the rice seedlings, with 3 replicates for each treatment. In addition, a blank control was set up.
as §9

[11] = system: Aphis citricola van der Goot nymphs; assay: Joint toxicity of I-72 + nicotine, Example 72, Table 72; conditions: A = compound I-72, B = nicotine, apple leaf spraying, 48 hours
Protocol: Test target: Aphis citricola van der Goot nymphs.
as §2
Experimental method: first, apple leaves with uniform and consistent Aphis citricola van der Goot were selected, with about 30-40 insects on each leaf. Then, they were evenly sprayed with the pesticide solution in the order from low dosage to high dosage according to the experimental design, with 1.5 mL for each leaf and 3 replicates for each treatment. In addition, a blank control was set up.
as §8

[12] = system: Aphis gossypii Glover nymphs; assay: Joint toxicity of I-72 + nitenpyram, Example 67, Table 67; conditions: 48 h
Protocol: Test target: Aphis gossypii Glover nymphs, a sensitive strain reared indoors.
as §2
Experimental method: first, cotton leaves with uniform and consistent Aphis gossypii were selected, with about 30-40 insects on each leaf. Then, they were evenly sprayed with the pesticide solution in the order from low dosage to high dosage according to the experimental design, with 1.5 mL for each leaf and 3 replicates for each treatment. In addition, a blank control was set up.
as §8

Aphis craccivora nymphs = assay: whole plant or invertebrate; conditions: in Vicia faba, 48 h
Protocol: Test target: Aphis craccivora nymphs, a sensitive strain reared indoors.
as §2
Experimental method: first, broad bean seedlings with uniform and consistent Aphis craccivora were selected, with about 30-40 insects on each seedling. Then, they were evenly sprayed with the pesticide solution in the order from low dosage to high dosage according to the experimental design, with 1.5 mL of the solution for each leaf and 3 replicates for each treatment. In addition, a blank control was set up.
as §7

[13] = system: 2nd-instar larvae of Spodoptera exigua Hübner; assay: whole plant or invertebrate; conditions: A = compound I-72, B = tetrachlorantraniliprole; cabbage leaf dipping; 72 hours
Protocol: Test target: 2nd-instar larvae of Spodoptera exigua Hübner.
as §2
(§10) Experimental method: first, cabbage leaves were selected and dipped in the prepared pesticide solution for 10 s in the order from low dosage to high dosage according to the experimental design. After natural air-drying in the shade, they were placed in a 9-cm-diameter Petri dish with filter paper, and uniform and healthy test insects were introduced, with 10 insects for each treatment and 3 replicates for each treatment. In addition, a blank control was set up.
as §4

[14] = system: 2nd-instar larvae of Plutella xylostella; assay: Joint toxicity of I-72 + tetraniliprole, Example 58, Table 58; conditions: A = compound I-72, B = tetraniliprole; cabbage leaf dipping; 72 hours
Protocol: Test target: 2nd-instar larvae of Plutella xylostella.
as §2, §10, §9

[15] = system: Bemisia tabaci (Gennadius) nymphs; assay: Joint toxicity of I-72 + thiacloprid, Example 71, Table 71; conditions: in Gossypium hirsutum, 96 h
Protocol: Test target: Bemisia tabaci (Gennadius) nymphs, a sensitive strain reared indoors.
as §2
Experimental method: first, cotton leaves with neat and consistent Bemisia tabaci (Gennadius) nymphs were selected and made into leaf disks, with about 20 insects on each leaf disk. Then, they were evenly sprayed with the pesticide solution in the order from low dosage to high dosage according to the experimental design, with 1.5 mL for each leaf and 3 replicates for each treatment. In addition, a blank control was set up.
The treated test materials were placed in an observation room, and the temperature, humidity and illumination of the observation room could be adjusted as needed. The number of dead and live insects was investigated 96 hours later. […] Then, the co-toxicity coefficient of each ratio was calculated using the Sun Y-P method to evaluate the mixing effect (the same as in Example 1).

[16] = system: 3rd-instar larvae of Yponomeuta evonymallus (Linnaeus); assay: Joint toxicity of I-72 + thiamethoxam, Example 66, Table 66; conditions: A = compound I-72, B = thiamethoxam; leaf dipping; 72 hours
Protocol: Test target: 3rd-instar larvae of Yponomeuta evonymallus (Linnaeus).
as §2
Experimental method: first, Hylotelephium spectabile leaves were selected and dipped in the prepared pesticide solution for 10 s in the order from low dosage to high dosage according to the experimental design. After natural air-drying in the shade, they were placed in a 9-cm-diameter Petri dish with filter paper, and uniform and healthy test insects were introduced, with 10 insects for each treatment and 3 replicates for each treatment. In addition, a blank control was set up.
as §4

[17] = system: Thrips flavus Schrank nymphs; assay: Joint toxicity of I-72 + tolfenpyrad, Example 62, Table 62; conditions: in Solanum melongena, 48 h
Protocol: Test target: Thrips flavus Schrank nymphs.
as §2
Experimental method: first, eggplant seedlings with Thrips flavus Schrank were selected, and the base number was counted. Then, uniform spraying was performed with the pesticide solution in the order from low to high doses according to the experimental design, with 2 mL for each seedling and 3 replicates for each treatment. In addition, a blank control was set up.
as §8

C/C(=N\C#N)N(C)Cc1ccc(Cl)nc1 [acetamiprid]
LC50 [1]: 7.92 µg/mL

CNC(=O)c1cc(Cl)cc(C)c1NC(=O)c1cc(Br)nn1-c1ncccc1Cl [chlorantraniliprole]
LC50 [2]: 1.2 µg/mL

CN/C(=N\[N+](=O)[O-])NCc1cnc(Cl)s1 [clothianidin]
LC50 [3]: 0.513 µg/mL (≈ 2.05 µM)

CNC(=O)c1cc(C#N)cc(C)c1NC(=O)c1cc(Br)nn1-c1ncccc1Cl [cyantraniliprole]
LC50 [4]: 1.18 µg/mL
LC50 [5]: 36.2 µg/mL

Nc1nc(N)nc(NC2CC2)n1 [cyromazine]
LC50 [6]: 5.06 µg/mL

CN/C(=N/CC1CCOC1)N[N+](=O)[O-] (stereo not drawn) [dinotefuran]
LC50 [7]: 75.3 µg/mL (≈ 372 µM)

Cc1cc(C(F)(C(F)(F)F)C(F)(F)F)ccc1NC(=O)c1cccc(I)c1C(=O)NC(C)(C)CS(C)(=O)=O [flubendiamide]
LC50 [8]: 1.02 µg/mL

O=C(NC(=O)c1c(F)cccc1F)Nc1cc(Cl)c(OC(F)(F)C(F)F)c(Cl)c1 [hexaflumuron]
LC50 [9]: 5.57 µg/mL

O=[N+]([O-])NC1=NCCN1Cc1ccc(Cl)nc1 [imidacloprid]
LC50 [10]: 4.9 µg/mL

CN1CCC[C@H]1c1cccnc1 [nicotine]
LC50 [11]: 8.19 µg/mL

CCN(Cc1ccc(Cl)nc1)/C(=C/[N+](=O)[O-])NC [nitenpyram]
LC50 [12]: 0.384 µg/mL

CC(c1ccc(C(F)(F)F)nc1)S(C)(=O)=NC#N (stereo not drawn) [sulfoxaflor]
LC50 (Aphis craccivora nymphs): 0.197 µg/mL (≈ 0.709 µM)

CNC(=O)c1cc(Cl)cc(Cl)c1NC(=O)c1cc(Br)nn1-c1ncc(Cl)cc1Cl [tetrachlorantraniliprole]
LC50 [13]: 0.6491 µg/mL (≈ 1.21 µM)

CNC(=O)c1cc(C#N)cc(C)c1NC(=O)c1cc(Cn2nnc(C(F)(F)F)n2)nn1-c1ncccc1Cl [tetraniliprole]
LC50 [14]: 0.0810 µg/mL

N#C/N=C1\SCCN1Cc1ccc(Cl)nc1 [thiacloprid]
LC50 [15]: 6.26 µg/mL

CN1COCN(Cc2cnc(Cl)s2)/C1=N\[N+](=O)[O-] [thiamethoxam]
LC50 [16]: 358.9351 µg/mL

CCc1nn(C)c(C(=O)NCc2ccc(Oc3ccc(C)cc3)cc2)c1Cl [tolfenpyrad]
LC50 [17]: 28.6 µg/mL
